Data set [1] concerns the target T1, Human farnesyl protein transferase (Homo sapiens, UniProt P49354+P49356).
T1 construct: grown as monolayer cell cultures were used as a source of human enzyme; endogenous in cells; host or cells: KHOS (Kirsten virus transformed human osteosarcoma) cells, grown as solid tumors in nude mice or as monolayer cultures; 30-50% ammonium sulfate fraction, then Q Fast Flow Sepharose
Briefly: In vitro assay for inhibition of farnesyl protein transferase (scintillation proximity assay). It is filed as biochemical. The following applies: concentration producing 50% inhibition of enzyme activity; [3H]-farnesylpyrophosphate and biotinylated lamin B peptide substrates, 60 min at 37° C. As for the experimental part:
Human farnesyl protein transferase was prepared essentially as described (Y. Reiss et al., Methods: A Companion to Methods in Enzymology vol 1, 241-245, 1990). Kirsten virus transformed human osteosarcoma (KHOS) cells (American Type Culture Collection, Rockville, Md., USA) grown as solid tumors in nude mice or grown as monolayer cell cultures were used as a source of human enzyme. Briefly, cells or tumors were homogenized in buffer containing 50 mM Tris, 1 mM EDTA, 1 mM EGTA and 0.2 mM phenylmethylsulfonylfluoride (pH 7.5). The homogenates were centrifuged 28,000×g for 60 min and the supernatants collected. A 30-50% ammonium sulfate fraction was prepared, and the resulting precipitate was resuspended in a small (10 to 20 ml) volume of dialysis buffer containing 20 mM Tris 1 mM dithiothreitol and 20 μM ZnCl2. The ammonium sulfate fraction was dialyzed overnight against two changes of the same buffer. The dialyzed material was applied to a 10×1 cm Q Fast Flow Sepharose (Pharmacia LKB Biotechnology Inc., Piscataway, N.J., USA) which had been preequilibrated with 100 ml of dialysis buffer supplemented with 0.05 M NaCl. The column was washed with an additional 50 ml of dialysis buffer plus 0.05 M NaCl followed by a gradient from 0.05 M to 0.25 M NaCl prepared in dialysis buffer. The enzyme activity was eluted with a linear gradient of 0.25 to 1.0 M NaCl prepared in the dialysis buffer. Fractions containing 4 to 5 ml volumes of column eluate were collected and analyzed for farnesyl protein transferase activity. Fractions with enzyme activity were pooled and supplemented with 100 μM ZnCl2. Enzyme samples were stored frozen at −70° C.
The activity of farnesyl protein transferase was measured using the Farnesyl Transferase [^3H] Scintillation Proximity Assay (Amersham International plc., England) under the conditions specified by the manufacturer. To assay for inhibitors of the enzyme, 0.20 μCi of the [^3H]-famesylpyrophosphate substrate and the biotinylated lamin B peptide substrate (biotin-YRASNRSCAIM) were mixed with test compounds in a reaction buffer consisting of 50 mM HEPES, 30 mM MgCl2, 20 mM KCl, 5 mM dithiothreitol, 0.01% Triton X-100. Test compounds were delivered in a 10 μl volume of dimethylsulfoxide (DMSO) to achieve concentrations of 1 and 10 μg/ml in a final volume of 100 μl. The reaction mixture was warmed to 37° C. The enzyme reaction was started by adding 20 μl of diluted human farnesyl protein transferase. Sufficient enzyme preparation was added to produce between 4000 to 15000 cpm of reaction product during the 60 min of reaction incubation at 37° C. Reactions were terminated by the addition of STOP/scintillation proximity bead reagent (Amersham). The reaction product [^3H]-farnesyl-(Cys)-biotin lamin B peptide was captured on the streptavidin linked scintillation proximity bead. The amount of [^3H]-farnesyl-(Cys)-biotin lamin B peptide synthesized in the presence or absence of test compounds was quantified as cpm by counting on a Wallac Model 1480 Microbeta Liquid Scintillation Counter. The cpm of product was considered to be farnesyl protein transferase activity. The protein farnesyl transferase activity observed in the presence of test compound was normalized to farnesyl transferase activity in the presence of 10% DMSO and expressed as per cent inhibition. […] The effects of test compounds in these studies were calculated as IC50 (concentration of test compound producing 50% inhibition of enzyme activity) using the LGICV50 computer program written by the Science Information Division of R. W. Johnson Pharmaceutical Research Institute (Spring House, Pa., USA) on a VAX computer.

Data set [2] has as its system NIH 3T3 cells transformed by the T24 activated human H-ras gene. Briefly: Ras-transformed cell phenotype reversion assay. As to conditions: NIH3T3; cell counts after 72 hours proliferation, corrected for initial input of 200,000 cells. It is filed as cell-based, mouse. The text has this:
Insertion of activated oncogenes such as the mutant ras gene into mouse NIH 3T3 cells converts the cells to a transformed phenotype. The cells become tumorigenic, display anchorage independent growth in semi-solid medium and lose contact inhibition. Loss of contact inhibition produces cell cultures which no longer form uniform monolayers. Rather, the cells pile up into multicellular nodules and grow to very high saturation densities in plastic tissue culture dishes. Agents such as protein farnesyl transferase inhibitors which revert the ras transformed phenotype restore the uniform monolayer growth pattern to cells in culture. This reversion is easily monitored by counting the number of cells in tissue culture plates. Transformed cells will achieve higher cell numbers than cells which have reverted to an untransformed phenotype. Compounds which revert the transformed phenotype should produce antitumor effects in tumors bearing ras gene mutations.
Compounds are screened in tissue culture in NIH 3T3 cells transformed by the T24 activated human H-ras gene. Cells are seeded at an initial density of 200,000 cells per well (9.6 cm^2 surface area) in six-well cluster tissue culture plates. Test compounds are immediately added to 3.0 ml cell growth medium in a 3.0 μl volume of DMSO, with a final concentration of DMSO in the cell growth medium of 0.1%. The test compounds are run at concentrations of 5, 10, 50, 100, and 500 nM along with a DMSO treated vehicle control. (In case a high activity is observed at 5 nM, the test compound is tested at even lower concentrations.) The cells are allowed to proliferate for 72 hours. Then the cells are detached in 1.0 ml trypsin-EDTA cell dissociation medium and counted on a Coulter particle counter.
Cell numbers expressed as cells per well are measured using a Coulter Particle Counter.
All cell counts were corrected for the initial cell input density by subtracting 200,000.
Control cell counts=[cell counts from cells incubated with DMSO vehicle −200,000].
Test compound cell counts=[cell counts from cells incubated with test compound −200,000]. [formula]
IC50 (i.e. the test compound concentration required to inhibit enzyme activity by 50%) is calculated if sufficient data are available, summarized in table 11.

Data set [3] has as its system T24 activated human H-ras gene transformed NIH 3T3 fibroblast cells (T24 cells). Briefly: Farnesyl protein transferase inhibitor secondary tumor model. As to conditions: nude mice with subcutaneous T24 cell tumors, 15 days of treatment. The format is in vivo. The source says:
The enzyme farnesyl protein transferase catalyzes the covalent attachment of a farnesyl moiety derived from farnesyl pyrophosphate to the oncogene product p21^ras. This directs p21^ras to attach to plasma membranes. Once attached to plasma membranes, mutant or oncogenic forms of p21^ras will provide a signal for the transformation and uncontrolled growth of malignant tumor cells. Therefore, inhibitors of protein farnesyl transferase will prevent the membrane attachment of p21^ras and inhibit growth of ras-transformed tumors.
Nude mice are inoculated with 1×10^6 of T24 activated human H-ras gene transformed NIH 3T3 fibroblast cells (T24 cells), subcutaneously in the inguinal region. After three days to allow tumors to become established, treatment with test compounds is begun via the oral route. The test compounds are dissolved in a 20% β-cyclodextrin in 0.1 N HCl solution and administered orally as 0.1 ml of compound solution per 10 g mouse body weight. Routinely used doses are 6.25, 12.5 and 25 mg/kg. Body weights and tumor sizes are monitored during the ensuing 15 days of treatment. At the end of treatment, animals are sacrificed and tumors are weighed.
The “mean vehicle treated tumor weight” is defined as the mean tumor weight from 10 to 15 mice […].
The “mean tumor weight” is defined as the mean tumor weight from 10 to 15 mice […]. [formula]

Turning to `COC(c1ccc(Cl)cc1)(c1ccc2c(c1)c(-c1cccc(Cl)c1)cc(=O)n2C)c1cncn1C` (racemic) (hydrate or solvate) [Compound 4, (±)-4-(3-chlorophenyl)-6-[(4-chlorophenyl)methoxy(1-methyl-1H-imidazol-5-yl)methyl]-1-methyl-2(1H)-quinolinone ethanedioate(1:1).dihydrate], the melting point – broadly, the temperature of the solid-liquid transition – came out at 154.6 °C.
On the same count and under the same terms, the figure for `Cn1cncc1C(c1ccc(Cl)cc1)c1ccc2c(c1)c(-c1cccc(Cl)c1)cc(=O)n2C` (racemic) (hydrate or solvate) [Compound 5, (±)-4-(3-chlorophenyl)-6-[(4-chlorophenyl)(1-methyl-1H-imidazol-5-yl)methyl]-1-methyl-2(1H)-quinolinone ethanedioate(1:1).mono-hydrate] is 157.4 °C.
In turn, `Cn1cncc1C(c1ccc(Cl)cc1)c1ccc2c(c1)c(-c1ccccc1)cc(=O)n2C` (racemic) [Compound 2, (±)-6-[(4chlorophenyl)(1-methyl-1H-imidazol-5-yl)methyl]-1-methyl-4-phenyl-2(1H)-quinolinone] had a melting point of 96.8 °C. Further, in data set [1], half-maximal inhibition (IC50) required 8 nM.
The like results for `Cn1cncc1C(O)(c1ccc(Cl)cc1)c1ccc2c(c1)c(-c1cccc(Cl)c1)cc(=O)n2C` (racemic) [Compound 3, (±)-4-(3-chlorophenyl)-6-[(4-chlorophenyl)hydroxy(1-methyl-1H-imidazol-5-yl)methyl]-1-methyl-2(1H)-quinolinone] were, in that order, 233.6 °C and 1.7 nM.
Molecule `CCCCn1cncc1C(O)(c1ccc(Cl)cc1)c1ccc2c(c1)c(-c1cccc(Cl)c1)cc(=O)n2C` (racemic) [Compound 9, (±)-4-(3-chlorophenyl)-6-[(1-butyl-1H-imidazol-5-yl)(4-chlorophenyl)hydroxymethyl]-1-methyl-2(1H)-quinolinone] showed a melting point of 174.6 °C.
On to `Cn1cncc1C(C)(c1ccc(Cl)cc1)c1ccc2c(c1)c(-c1cccc(Cl)c1)cc(=O)n2C` (racemic) [Compound 12, (±)-4-(3-chlorophenyl)-6-[1-(4-chlorophenyl)-1-(1-methyl-1H-imidazol-5-yl)ethyl]-1-methyl-2(1H)-quinolinone.ethanedioate (1:1)], for which the melting point was found to be 203.9 °C. The 50% inhibitory concentration (IC50) (as a rule, the concentration at which inhibition is half-maximal) in data set [1] is 4.2 nM. The same molecule had an IC50 in data set [2] of 66 nM.
For the molecule `Cn1cncc1C(N)(c1ccc(Cl)cc1)c1ccc2c(c1)c(-c1cccc(Cl)c1)cc(=O)n2C` (racemic) [Compound 14, (±)-6-[amino(4-chlorophenyl)(1-methyl-1H-imidazol-5-yl)methyl]-4-(3-chlorophenyl)-1-methyl-2(1H)-quinolinone], in data set [2], the IC50 is 3.8 nM. In data set [3], the “% reduction final tumor weight at a dose of 25 mg/kg bid, po” value turned out to be 66%.
Consider `Cn1cncc1C(CC#N)(c1ccc(Cl)cc1)c1ccc2c(c1)c(-c1cccc(Cl)c1)cc(=O)n2C` (racemic) [Compound 25, (±)-4-(3-chlorophenyl)-β-(4-chlorophenyl)-1,2-dihydro-1-methyl-β-(1-methyl-1H-imidazol-5-yl)-2-oxo-6-quinolinepropanenitrile], for which the melting point was determined as 151.3 °C. Besides, the 50% inhibitory concentration (IC50) in data set [1] amounted to 2.2 nM. This molecule displayed an IC50 in data set [2] of 86 nM.
`Cn1cnc(C(c2ccc(Cl)cc2)c2ccc3c(c2)c(-c2ccccc2)cc(=O)n3C)c1` (racemic) [Compound 44, (±)-6-[(4-chlorophenyl)(1-methyl-1H-imidazol-4-yl)methyl]-1-methyl-4-phenyl-2(1H)-quinolinone] had a melting point of 149.9 °C.
Take `CC(=O)NC(c1ccc(Cl)cc1)(c1ccc2c(c1)c(-c1cccc(Cl)c1)cc(=O)n2C)c1cncn1C.O=C(O)C(=O)O` (racemic) [Compound 56, (±)-N-[(4-chlorophenyl)[4-(3-chlorophenyl)-1,2-dihydro-1-methyl-2-oxo-6-quinolinyl](1-methyl-1H-imidazol-5-yl)methyl]acetamide ethanedioate (1:1)]: the midpoint of inhibition in data set [2], the IC50, lay at 23 nM. Further, the “% reduction final tumor weight at a dose of 25 mg/kg bid, po” value in data set [3] is reported as 42%.
Turning to `CN(C)C(c1ccc(Cl)cc1)(c1ccc2c(c1)c(-c1cccc(Cl)c1)cc(=O)n2C)c1cncn1C` (stereo not shown) [Compound 66], the IC50 in data set [1] is 4 nM; in data set [2] it was 19 nM.
Turning to `COCCNC(c1ccc(Cl)cc1)(c1ccc2c(c1)c(-c1cccc(Cl)c1)cc(=O)n2C)c1cncn1C` (stereo not shown) [Compound 67], the IC50 in data set [1] worked out at 5.9 nM; in data set [2] it was 51 nM.
The like results for `Cn1cncc1C(CO)(c1ccc(Cl)cc1)c1ccc2c(c1)c(-c1cccc(Cl)c1)cc(=O)n2C` (stereo not shown) [Compound 71] were, in that order, 26 nM and 288 nM.
Taken in the same sequence, the figures for `CCc1cccc(-c2cc(=O)n(C)c3ccc(C(N)(c4ccc(Cl)cc4)c4cncn4C)cc23)c1` (stereo not shown) [Compound 98] were 6.4 nM and 15 nM.
As for `CCCc1cccc(-c2cc(=O)n(C)c3ccc(C(N)(c4ccc(Cl)cc4)c4cncn4C)cc23)c1` (stereo not shown) [Compound 100], the half-maximal inhibitory concentration (IC50) turned out to be 0.52 nM in data set [1] and 11 nM in data set [2].

The record behind these values is patent US6420387B1, “Farnesyl protein transferase inhibiting (imidazol-5-yl) methyl-2-quinolinone derivatives” (Janssen Pharmaceutica N.V., priority 1995, dated 2002).
